Measured values: patent US11459293B2, “Compositions and methods of making expanded hematopoietic stem cells using derivatives of fluorene” (ImmuneBridge Inc., priority 2017, dated 2022)

Key:
[1] = test system: hematopoietic stem cells derived from cord blood; experiment: Enhancement of hematopoietic stem cells from cord blood cultured with Compound 1.008, flow cytometry up to 19 days (Example 34); format: cell-based
Method: A frozen cord blood sample was thawed and gradually brought to room temperature. Thawed cord blood was incubated in an in vitro culture media of Alpha MEM without phenol red, 10% (v/v) heat inactivated fetal bovine serum (FBS). Four samples were tested: Base conditions, +SF Conditions, +1.008 Conditions, and +1.008/+ER conditions. The components included in each condition is described in Table 4. Each condition tested also included an antibiotic solution that includes penicillin, streptomycin, and amphotericin B to avoid contamination.
(§1) Cultures were incubated at 3% oxygen (controlled by nitrogen) and 5% CO2.
Small molecule components were added separately and fresh each time the media needs to be refreshed. Cytokines can be stored together. Media renewal should occur at least every few days.
On the days indicated varying amounts of the cell culture was removed for data analysis (flow cytometry using a BD FACS ARIA II) and to avoid overcrowding of cells. The culture volume was replenished with fresh media according to the conditions tested. The data reported accounts for the dilution factor introduced in this procedure.

[2] = test system: CD34+ cells from non-mobilized peripheral blood; experiment: Long-term (21 days) expansion with Compound 1.010, non-mobilized peripheral blood (Example 36); format: cell-based, human; conditions: Compound 1.010 8 μM
Method: CD34+ cells from non-mobilized peripheral blood were purchased from STEMCELL Technologies. Primary human CD34+ cells were isolated from blood samples using positive immunomagnetic separation techniques.
Cryspreserved CD34+ cell samples from each source were thawed and gradually brought to room temperature. Samples were washed then placed in overnight culture in StemSpan with 100 ng/ml each of FLT3L, TPO, SCF, and IL-6.
as §1
Twenty-four hours later (day 1), cells were counted and immunophenotyped (flow cytometry on an Invitrogen Attune NxT cytometer). […] Exact cell numbers dispensed per condition were quantified for later calculations of fold change from day 1.
Wells were analyzed at days 7 and 10, flasks were analyzed at 14 and 21 days of incubation. Cell numbers and phenotypes were quantified with flow cytometry. […] An additional seven days later (day 21 of culture), cell numbers and phenotypes were again quantified with flow cytometry. Cell numbers calculated at day 21 account for the passaging of the cells.
Conditions in 96-well plates were prepared in quadruplicate; conditions in flasks were prepared in duplicate. On the above-indicated number of days in culture, cells from wells or flasks were collected and phenotypes were analyzed (flow cytometry on an Invitrogen Attune NxT cytometer).

[3] = test system: CD34+ cells isolated from donor peripheral blood (non-mobilized); experiment: Enhancement of hematopoietic stem cells from non-mobilized peripheral blood, flow cytometry, fold change days 2 to 7 (Example 33); format: cell-based; conditions: 8 μM sample compound, normalized fold change days 2 to 7, 3% oxygen
Method: CD34+ cells were isolated from donor peripheral blood. Standard buffy coat separation using ficoll paque was performed. Cells were pelleted and incubated with unlabeled CD64 antibody. Cells then underwent negative depletion using biotinylated CD2, CD3, CD4, CD5, CD8, CD11b, CD14, CD16, CD19, CD20, CD45RA, CD56, CD235 (in some examples CD15, CD25 and other lineage specific antibodies may also be used). Cells which bind these antibodies are depleted using streptavidin beads. The enriched progenitor pool then undergoes cell sorting for CD34+.
Isolated CD34+ cells were incubated in an in vitro culture media of Alpha MEM without phenol red with 10% (v/v) heat inactivated fetal bovine serum (FBS). When testing compounds of Formula I, two internal controls were used: a positive control (+SF conditions) and a baseline control (i.e. basic conditions (“cytokines only”)). The media components and concentrations used for the compounds tested are described in Table 2. The culture also included an antibiotic solution that includes penicillin, streptomycin, and amphotericin B to avoid contamination. Controls were included because the amount of expansion in samples obtained varies from individual to individual. […]
Table 3, below, summarizes the relative expansive effect of Compound 1.001 to 1.023 (sample compounds) at the indicated concentration. […] It is calculated as shown below: […]

Compound: CC(C)(C)C(=O)Nc1ccc2c(c1)C(=O)c1cc(N)ccc1-2 [Compound 1.008, N-(7-amino-9-oxo-9H-fluoren-2-yl)pivalamide]
- maintenance and expansion of hematopoietic stem cells in culture ([1]; +1.008 Conditions (250 nM), 19 days in culture): maintained and continue to expand
- total number of CD34+, CD34+/CD133+, CD34+/CD133+/CD90+ and CD34+/CD133+/CD90+/CD38 low/− cells (flow cytometric cell counts) ([1]; FIG. 24B-E, versus Base and +SF conditions): increase
- increase in CD34+ cells from day 2 ([1]; after 19 days in culture, Compound 1.008 250 nM, 3% oxygen, FIG. 25B): greater than 50 fold
- increase in CD34+/CD133+ cells from day 2 ([1]; after 19 days in culture, Compound 1.008 250 nM, 3% oxygen, FIG. 25C): greater than 50 fold
- increase in CD34+/CD133+/CD90+ cells from day 2 ([1]; after 19 days in culture, Compound 1.008 250 nM, 3% oxygen, FIG. 25D): ~20 fold
- increase in CD34+/CD133+/CD90+/CD38low/− cells from day 2 ([1]; after 19 days in culture, Compound 1.008 250 nM, 3% oxygen, FIG. 25E): > 12 fold

Compound: CC(C)(C)C(=O)Nc1ccc2c(c1)C(O)c1ccccc1-2 (centres unmarked) [Compound 1.010]
- expansion of CD34+ cells ([2]; fold change from day 1, up to 21 days in culture, 3% oxygen, FIG. 54B): greater than nine-fold
- expansion compared with cytokines alone ([2]; up to 21 days): far surpasses

Compound: CC(C)(C)C(=O)Nc1ccc2c(c1)C(=O)CC2 [Compound 1.019]
- CD90 effect (relative expansive effect on CD34+/CD133+/CD90+ cells) [3]: ++ (0.2 ≤ x < 0.55)
- CD133 effect (relative expansive effect on CD34+/CD133+ cells) [3]: ++ (0.2 ≤ x < 0.55)

Compound: ER50891 [reference compound]
- fold increase levels on addition of ER50891 to +1.008 conditions ([1]; ER50891 100 nM with Compound 1.008 250 nM, 19 days): even further improved
